The results in this text go back to ChEMBL document CHEMBL1201862, “PubChem BioAssay data set” (2004).

Some test systems named below: A498; COLO 205; HOP-62; HT-29; KM12; LOX IMVI; M14; NCI-H460; RPMI-8226; SF-295; SNB-19; SNB-75; TK-10; SK-MEL-2.
Experiment in all cases: inhibition of tumour cell growth, NCI panel, 48 h

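Exposure lasted 48 hours, with cells grown in 96-well plates and compounds tested at five concentrations. GI50 marks 50% less growth.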 Active and inactive are the calls of the source. Cut-off read from the data, not from the text of the source: active = GI50 up to about 1.1 µM and inactive = higher. Some results are limits rather than exact numbers.

As for `O=C(Nc1ccccc1)N1C(c2ccccc2)=N[C@@H](c2ccccc2)[C@@H]1c1ccccc1`, the GI50 in the assay on A498 was 18.3 µM (inactive); with COLO 205, 14.6 µM (inactive); in the assay on HOP-62 it was 20.6 µM (inactive); with HT-29 it was 16.6 µM (inactive); with KM12 it was 18.3 µM (inactive); in the assay on LOX IMVI, 14.6 µM (inactive). In addition, the GI50 was 14.6 µM (inactive) in the assay on M14; 31.4 µM (inactive) in the assay on NCI-H460; 22.5 µM (inactive) with RPMI-8226; 21.9 µM (inactive) in the assay on SF-295; 31.6 µM (inactive) with SNB-19; 22.1 µM (inactive) in the assay with SNB-75. The GI50 in the assay with TK-10 is 31.3 µM (inactive).

With `On1c(-c2ccccc2)c(-c2c(-c3ccccc3)n(O)c3ccccc23)c2ccccc21`, the GI50 in the assay on HT-29 is 45.7 µM (inactive); in the assay with KM12 it was 30.8 µM (inactive); with LOX IMVI it was 26.2 µM (inactive); in the assay on NCI-H460, 23.4 µM (inactive); in the assay on SF-295, 22.1 µM (inactive); in the assay with SK-MEL-2, 25.8 µM (inactive). The GI50 with SNB-19 was 67.5 µM (inactive); in the assay with SNB-75, 27.5 µM (inactive); in the assay on TK-10, 38 µM (inactive).

Take `O=P(Oc1ccc2ccccc2c1)(N1CC1)N1CC1`: the GI50 in the assay with A498 was 20.3 µM (inactive); with COLO 205, 55.6 µM (inactive); with HT-29, > 100 µM (inactive); in the assay on KM12, > 100 µM (inactive); in the assay with LOX IMVI, 28.8 µM (inactive); in the assay with M14, 11.4 µM (inactive). The GI50 in the assay on NCI-H460 is 8.99 µM (inactive); in the assay on RPMI-8226 it was > 100 µM (inactive); in the assay with SF-295, 10.9 µM (inactive); in the assay with SK-MEL-2 it was 68.1 µM (inactive); with SNB-19, 26.9 µM (inactive); in the assay on TK-10 it was 67.9 µM (inactive).

As for `N#CC(NNC(=O)c1ccccc1O)c1ccccc1` (configuration not stated), the GI50 with COLO 205 is 33.7 µM (inactive); in the assay on HOP-62, 5.89 µM (inactive); in the assay on HT-29, 26 µM (inactive); in the assay with KM12 it was 1.61 µM (inactive); in the assay with LOX IMVI, 2.9 µM (inactive); with M14, 0.942 µM (active). The GI50 is 0.646 µM (active) with NCI-H460; 6.32 µM (inactive) in the assay with RPMI-8226; 2.89 µM (inactive) in the assay with SF-295; 2.55 µM (inactive) with SK-MEL-2; 0.38 µM (active) in the assay with SNB-75; 4.3 µM (inactive) in the assay on TK-10.

`CCN(CC)CCNC(=O)c1nn(C)c(=S)[nH]c1=S`: the GI50 in the assay on COLO 205, in the assay with HOP-62, in the assay on HT-29, with KM12, with LOX IMVI and with M14 was > 100 µM (inactive) throughout. Further, the GI50 with NCI-H460, with RPMI-8226, with SF-295, with SK-MEL-2, in the assay on SNB-19 and in the assay with SNB-75 was > 100 µM (inactive) throughout. The GI50 in the assay with TK-10 was > 100 µM (inactive).

`O=C1C2=C(C(c3ccccc3)=C1c1ccccc1)c1ccccc1C1(c3ccccc3)C2=C(O)C(c2ccccc2)=C1c1ccccc1` (configuration not stated): the GI50 in the assay on A498, in the assay with COLO 205, in the assay on HOP-62, with HT-29, in the assay with KM12 and in the assay with LOX IMVI was > 100 µM (inactive) in each case. Also, the GI50 with M14, in the assay with NCI-H460, in the assay on RPMI-8226, in the assay on SF-295, in the assay with SK-MEL-2 and in the assay on SNB-75 was > 100 µM (inactive) in each case. Also, the GI50 in the assay on TK-10 is > 100 µM (inactive).

As for `N#Cc1c2c(c(N=P(c3ccccc3)(c3ccccc3)c3ccccc3)n3c1nc1ccccc13)CCCC2`, the GI50 with A498 is 20.2 µM (inactive); in the assay with COLO 205 it was 11.5 µM (inactive); in the assay on HOP-62 it was 19 µM (inactive); in the assay on HT-29, 14.7 µM (inactive); in the assay with KM12 it was 17.4 µM (inactive); in the assay with LOX IMVI, 16.7 µM (inactive). Besides, the GI50 with M14 is 30.8 µM (inactive); with NCI-H460 it was 13.3 µM (inactive); in the assay with RPMI-8226 it was 14.8 µM (inactive); in the assay with SF-295 it was 12.8 µM (inactive); with SK-MEL-2 it was 16.6 µM (inactive); in the assay on SNB-19, 11.9 µM (inactive). Moreover, the GI50 in the assay with SNB-75 was 24.5 µM (inactive).

Regarding `O=C(/C=C/c1ccccc1)NC1C=Nc2ccc(Cl)cc2NC1=O` (configuration not stated), the GI50 with A498 is 21.7 µM (inactive); in the assay on COLO 205, 17.1 µM (inactive); in the assay with HOP-62 it was 47.9 µM (inactive); with HT-29 it was 30 µM (inactive); in the assay on KM12 it was 22.2 µM (inactive); with LOX IMVI, 18.8 µM (inactive). Moreover, the GI50 is 21.9 µM (inactive) in the assay on M14; 20.9 µM (inactive) in the assay with NCI-H460; 29 µM (inactive) with SF-295; 30.5 µM (inactive) with SK-MEL-2; 29.1 µM (inactive) in the assay on SNB-19; 15.6 µM (inactive) in the assay on SNB-75. Further, the GI50 in the assay on TK-10 was 36 µM (inactive).

Regarding `C[C@]12CC[C@H](O)CC1=CC[C@@H]1C2CC[C@]2(C)Nc3c(cnn3-c3ccccc3)CC12` (some centres not stated), the GI50 with A498 is 3.61 µM (inactive); with HOP-62, 2.81 µM (inactive); in the assay with HT-29, 1.89 µM (inactive); with KM12, 2.05 µM (inactive); with M14 it was 6.34 µM (inactive); in the assay with NCI-H460, 2.72 µM (inactive). Besides, the GI50 in the assay with RPMI-8226 is 0.361 µM (active); with SF-295 it was 0.388 µM (active); in the assay on SK-MEL-2, 9.73 µM (inactive); with SNB-75, 1 µM (active); in the assay with TK-10 it was 9.48 µM (inactive).

Regarding `CCCCCC/C=C/CCCCCCCc1cccc(O)c1C(=O)O`, the GI50 is > 100 µM (inactive) in the assay with COLO 205; 33.6 µM (inactive) in the assay on HOP-62; 14.4 µM (inactive) in the assay with HT-29; > 100 µM (inactive) in the assay on KM12; 70.6 µM (inactive) with LOX IMVI; > 100 µM (inactive) with M14. In addition, the GI50 in the assay on NCI-H460 is 9.75 µM (inactive); in the assay with RPMI-8226 it was 54.2 µM (inactive); with SF-295, > 100 µM (inactive); with SK-MEL-2, > 100 µM (inactive); in the assay with SNB-19, 34.7 µM (inactive); with SNB-75, > 100 µM (inactive). In the assay with TK-10, the GI50 is 70.3 µM (inactive).

On to `O=C(COC(=O)c1cccc2c(=O)c3ccccc3[nH]c12)Nc1ccc(C(=O)O)cc1`, for which the GI50 in the assay with A498 was > 100 µM (inactive); in the assay on COLO 205, > 100 µM (inactive); in the assay on HOP-62, > 100 µM (inactive); with HT-29, > 100 µM (inactive); in the assay with KM12 it was 47.2 µM (inactive); with LOX IMVI, > 10 µM (inactive). Also, the GI50 is > 100 µM (inactive) in the assay on M14; > 100 µM (inactive) in the assay with NCI-H460; > 100 µM (inactive) in the assay with SF-295; > 100 µM (inactive) with SNB-19; 42.5 µM (inactive) with SNB-75; > 10 µM (inactive) in the assay with TK-10.

Consider `CC(C)(C)CC(C)(C)c1cc2c(O)c(c1)Cc1cc(C(C)(C)CC(C)(C)C)cc(c1O)Cc1cc(C(C)(C)CC(C)(C)C)cc(c1O)Cc1cc(C(C)(C)CC(C)(C)C)cc(c1O)Cc1cc(C(C)(C)CC(C)(C)C)cc(c1O)Cc1cc(C(C)(C)CC(C)(C)C)cc(c1O)C2`, for which the GI50 in the assay with COLO 205, in the assay on HOP-62, with HT-29, in the assay with KM12, in the assay with M14 and in the assay with NCI-H460 was > 100 µM (inactive) throughout. Further, the GI50 with RPMI-8226, in the assay with SF-295, in the assay with SK-MEL-2, with SNB-19, in the assay with SNB-75 and with TK-10 was > 100 µM (inactive) each time.

Turning to `CCSC1=C(C)N(/C=N/C(C)(C)C)CC1`, the GI50 is > 100 µM (inactive) with A498; > 100 µM (inactive) with COLO 205; > 100 µM (inactive) with HOP-62; > 100 µM (inactive) in the assay with HT-29; > 100 µM (inactive) in the assay with KM12; 89.1 µM (inactive) in the assay on LOX IMVI. For the same compound, the GI50 with M14, with NCI-H460, in the assay on SF-295, with SK-MEL-2, in the assay with SNB-19 and in the assay on SNB-75 was > 100 µM (inactive) in each case. For the same compound, the GI50 with TK-10 is > 100 µM (inactive).

`O=c1cc2n(c(=O)[nH]1)C1OC(C(O)C1O)[C@@H]2CCO` (some centres not stated): the GI50 in the assay on A498, with HOP-62, in the assay with HT-29, with KM12, with LOX IMVI and with M14 was > 100 µM (inactive) in each case. Besides, the GI50 in the assay with NCI-H460, in the assay on SF-295, in the assay on SK-MEL-2, in the assay on SNB-19 and with TK-10 was > 100 µM (inactive) in each case.

As for `CCOC(=O)c1ccc(N2C(=O)/C(=C\OC)c3ccccc3C2=O)cc1`, the GI50 in the assay with COLO 205 is 94.4 µM (inactive); in the assay with HT-29 it was 44.3 µM (inactive); with KM12 it was 42.6 µM (inactive); with RPMI-8226 it was 27.8 µM (inactive); in the assay with SF-295, 33.4 µM (inactive); in the assay on SK-MEL-2 it was 23 µM (inactive). The results for the GI50 in the assay on SNB-19, in the assay with SNB-75 and in the assay on TK-10 were 34 µM (inactive), 25.5 µM (inactive) and 15.1 µM (inactive), respectively.

As to `CC(O)C1OC(n2ccc(=O)[nH]c2=O)CC1n1cncn1` (configuration not stated), the GI50 in the assay on A498, in the assay on COLO 205, in the assay with HOP-62, in the assay with HT-29, in the assay on KM12 and in the assay on LOX IMVI was > 100 µM (inactive) throughout. In addition, the GI50 with M14, in the assay on NCI-H460, in the assay with RPMI-8226, with SF-295, with SK-MEL-2 and in the assay with SNB-19 was > 100 µM (inactive) throughout. In addition, the GI50 with TK-10 was > 100 µM (inactive).
